Measured values: patent publication US20100285959A1, “HERBICIDAL MIXTURES” (priority 2006, published 2010)

What was measured:
[1] = tested on: common blackjack (BIDPI); test: Test 12 field trial, preemergence; assay type: in vivo, Bidens pilosa; design: scale not given here; conditions: Cpd 2 or Cpd 1 62 g a.i./ha, Diuron 2000 g a.i./ha
Description: In early-mid spring season, corn seeds (hybrid ‘Pioneer 3041’) were planted 5 cm deep and sugarcane nodes (variety RB-72.454) were planted 10 cm deep in separate plots in a clay soil having 2.6% organic matter and a pH of 5.6. Plots were 24 m long by 1.5 m wide with rows spaced 80 cm (corn) or 140 cm (sugarcane) apart. Corn seeds were spaced 15 cm apart and sugarcane nodes were spaced 10 cm apart within the rows. At the same time, weed seeds were broadcast over the surface of separate plots without a crop, one weed species per plot. The weed plots were rotary tilled to incorporate the weed seeds to a variety of depths. The field was managed using conventional tillage practices.

[2] = tested on: wheat (TRZAW); test: Test 30 growth chamber, postemergence; assay type: in vivo, Triticum aestivum
Description: A growth chamber test was conducted to evaluate the effects on the plant species wheat (TRZAW, Triticum aestivum L.) and barley (HORVX, Hordeum vulgare L.) with mixtures of Compound 1 and Compound 2 with glycerol. Wheat and barley seeds were planted in a sandy loam soil having 0.9% organic matter and a pH of 6.3. […] Wheat and barley plants were treated postemergence at the two leaf growth stage for Compound 1 and at the three leaf growth stage for Compound 2. Each treatment was replicated one time. […] Plants were watered as needed. […] Colby's Equation was used to determine herbicidal effects expected from the mixtures.

[3] = tested on: morningglory (IPOSS); test: Test 7 field trial, preemergence; assay type: in vivo, Ipomoea L. spp.
Description: Plots were 7.6 m long by 3.0 m wide with rows spaced 76 cm apart. Seeds were spaced 15 cm apart within the rows. The field was managed using conventional tillage practices. […] Wild radish was evaluated 14 and 28 days after application. […] Results are the means of the three replicates.

[4] = tested on: galium (GALAP); test: Test 22 growth chamber, postemergence; assay type: in vivo, Galium aparine; conditions: 25 DAA
Description: (§1) A test was conducted to evaluate the effects on winter barley (HORVW, Hordeum vulgare L.), winter wheat (TRZAW, Triticum aestivum L.), and several weed species of mixtures of Compound 2 with the commercial herbicides (2,4-dichlorophenoxy)acetic acid (2,4-D) and (4-chloro-2-methylphenoxy)acetic acid (MCPA), auxin mimics. […] Plants were treated postemergence at the 2-4 leaf growth stage, except KCHSC, SASKR and STEME which were in the 4-8 leaf growth stage. Each treatment was replicated one time. […] Plants were watered as needed. […] Results are from single replicates.

[5] = tested on: corn (ZEAMD); test: Test 9 field trial, emerged weeds before corn planting; assay type: in vivo, Zea mays ssp. indentata; conditions: 57 DAA; g a.i./ha: Cpd 2 100, Glyphosate 1540, Paraquat 1150
Description: Corn seeds (hybrid ‘Pioneer 34M91 RR’) were planted in mid spring season, about 3.8 cm deep in a silty clay loam soil having a pH of 6.7. Plots were 9.1 m long by 3.0 m. The field was managed using no-till practices. […] Compound 2 and paraquat treatments, alone and in combination, also included a surfactant. Glyphosate, alone and with Compound 2, included ammonium sulfate in the treatment mixture. […] The effects on the weeds in the treated plots and untreated control plots were recorded 7, 14, 23, 30 and 57 days after application. Most of the weed species could not be evaluated at every timing. Corn response was only evaluated 57 days after application. […] Results are the means of the three replicates.

[6] = tested on: winter wheat (TRZAW); test: Test 21 growth chamber, postemergence; assay type: in vivo, Triticum aestivum; conditions: 19 DAA
Description: A test was conducted to evaluate the effects on winter barley (HORVW, Hordeum vulgare L.), winter wheat (TRZAW, Triticum aestivum L.), and several weed species, of mixtures of Compound 2 with the commercial herbicide (2,4-dichlorophenoxy)acetic acid (2,4-D), an auxin mimic. […] Plants were treated postemergence at the 2-4 leaf growth stage, and each treatment was replicated one time. […] Plants were watered as needed. […] Results are from single replicates.

[7] = tested on: common lambsquarters (CHEAL); test: Test 23 growth chamber, postemergence; assay type: in vivo, Chenopodium album; conditions: 21 DAA
Description: A test was conducted to evaluate the effects on winter barley (HORVW, Hordeum vulgare L.), winter wheat (TRZAW, Triticum aestivum L.), and several weed species of mixtures of Compound 2 with the commercial herbicides (2,4-dichlorophenoxy)acetic acid (2,4-D) and (4-chloro-2-methylphenoxy)acetic acid (MCPA), auxin mimics. […] Plants were treated postemergence at the 2-4 leaf growth stage, and each treatment was replicated three times. […] Plants were watered as needed. […] Results are means of the three replicates.

[8] = tested on: common chickweed (STEME); test: Test 22 growth chamber, postemergence; assay type: in vivo, Stellaria media; conditions: 25 DAA
Description: as §1

[9] = tested on: winter barley (HORVW); test: Test 22 growth chamber, postemergence; assay type: in vivo, Hordeum vulgare; conditions: 25 DAA
Description: as §1

[10] = tested on: common chickweed (STEME); test: Test 3 field trial, emerged weeds before corn planting; assay type: in vivo, Stellaria media; conditions: Cpd 2 100, glyphosate 1540, paraquat 1150 g a.i./ha, alone or combined
Description: Corn seeds (hybrid ‘Pioneer 33J56’) were planted in early spring season, 3.8 cm deep in a silt loam soil having 2.4% organic matter and a pH of 6. Plots were 6.1 m long by 2.7 m wide with rows spaced 91.4 cm apart. The field was managed using no-till practices. […] Compound 2 and paraquat treatments, alone and in combination, also included a surfactant. Glyphosate, alone and with Compound 2, included ammonium sulfate in the treatment mixture. […] The effects on the weeds in the treated plots and untreated control plots were recorded 30, 42, 46 and 68 days after application. Most of the weed species could not be evaluated at every timing. Corn response was not evaluated because the growth was highly variable depending on the efficacy of the weed control treatments. […] Results are the means of the three replicates.

[11] = 2,4-D or MCPA alone 250 g a.i./ha

Structure (SMILES): Nc1nc(C2CC2)nc(C(=O)O)c1Cl [Compound 1, 6-amino-5-chloro-2-cyclopropyl-4-pyrimidinecarboxylic acid]
- BIDPI Obs ([1]; 15 DAA): 70
- BIDPI Obs ([1]; 29 DAA): 80
- BIDPI Obs ([1]; 48 DAA): 80
- BIDPI Obs ([1]; 61 DAA): 60
- TRZAW Obs ([2]; 18 DAA, Cpd 1 1 g a.i./ha): 30%
- TRZAW Obs ([2]; 18 DAA, Cpd 1 4 g a.i./ha): 35%
- TRZAW Obs ([2]; 18 DAA, Cpd 1 16 g a.i./ha): 45%

Structure (SMILES): COC(=O)c1nc(C2CC2)nc(N)c1Cl [Compound 2, methyl 6-amino-5-chloro-2-cyclopropyl-4-pyrimidinecarboxylate]
- IPOSS Obs ([3]; 14 DAA, 125 g a.i./ha): 100%
- IPOSS Obs ([3]; 14 DAA, 250 g a.i./ha): 100%
- IPOSS Obs ([3]; 14 DAA, 500 g a.i./ha): 100%
- IPOSS Obs ([3]; 28 DAA, 125 g a.i./ha): 100%
- IPOSS Obs ([3]; 28 DAA, 250 g a.i./ha): 100%
- IPOSS Obs ([3]; 28 DAA, 500 g a.i./ha): 100%
- IPOSS Obs ([3]; 62 DAA, 125 g a.i./ha): 100%
- IPOSS Obs ([3]; 62 DAA, 500 g a.i./ha): 100%
- Postemergence GALAP Obs ([4]; Cpd 2 alone 4 g a.i./ha): 65
- Postemergence GALAP Obs ([4]; Cpd 2 alone 8 g a.i./ha): 90
- Postemergence GALAP Obs ([4]; Cpd 2 alone 16 g a.i./ha): 100
- ZEAMD Obs [5]: 0%
- BIDPI Obs ([1]; 15 DAA): 60
- BIDPI Obs ([1]; 29 DAA): 80
- BIDPI Obs ([1]; 48 DAA): 80
- BIDPI Obs ([1]; 61 DAA): 70
- TRZAW Obs ([2]; 17 DAA, Cpd 2 1 g a.i./ha): 20%
- TRZAW Obs ([2]; 17 DAA, Cpd 2 4 g a.i./ha): 20%
- TRZAW Obs ([2]; 17 DAA, Cpd 2 16 g a.i./ha): 35%
- Postemergence TRZAW Obs ([6]; Cpd 2 alone 16 g a.i./ha): 50
- Postemergence CHEAL Obs ([7]; Cpd 2 alone 4 g a.i./ha): 53
- Postemergence CHEAL Obs ([7]; Cpd 2 alone 8 g a.i./ha): 55
- Postemergence CHEAL Obs ([7]; Cpd 2 alone 16 g a.i./ha): 55
- Postemergence STEME Obs ([8]; Cpd 2 alone 4 g a.i./ha): 50
- Postemergence STEME Obs ([8]; Cpd 2 alone 8 g a.i./ha): 50
- Postemergence STEME Obs ([8]; Cpd 2 alone 16 g a.i./ha): 55
- Postemergence HORVW Obs ([9]; Cpd 2 alone 4 g a.i./ha): 30
- Postemergence HORVW Obs ([9]; Cpd 2 alone 8 g a.i./ha): 35
- Postemergence HORVW Obs ([9]; Cpd 2 alone 16 g a.i./ha): 40
- STEME Obs ([10]; 30 DAA): 62%
- STEME Obs ([10]; 42 DAA): 37%
- STEME Obs ([10]; 46 DAA): 30%

Structure (SMILES): CCc1cccc(C)c1N(C(=O)CCl)[C@@H](C)COC [S-Metolachlor, S-metolachlor, reference compound]
- IPOSS Obs ([3]; 14 DAA, 1000 g a.i./ha): 48%
- IPOSS Obs ([3]; 28 DAA, 1000 g a.i./ha): 50%
- IPOSS Obs ([3]; 62 DAA, 1000 g a.i./ha): 13%

Structure (SMILES): O=C(O)COc1ccc(Cl)cc1Cl [2,4-D, (2,4-dichlorophenoxy)acetic acid]
- Postemergence GALAP Obs [4, 11]: 30
- Postemergence TRZAW Obs ([6]; 2,4-D alone 125 g a.i./ha): 35
- Postemergence TRZAW Obs ([6]; 2,4-D alone 250 g a.i./ha): 40
- Postemergence CHEAL Obs [7, 11]: 58
- Postemergence STEME Obs [8, 11]: 55
- Postemergence HORVW Obs [9, 11]: 10

Structure (SMILES): O=C(O)CNCP(=O)(O)O [Glyphosate]
- ZEAMD Obs [5]: 0%
- STEME Obs ([10]; 30 DAA): 100%
- STEME Obs ([10]; 42 DAA): 88%
- STEME Obs ([10]; 46 DAA): 100%
